Source: US20260124166A1, “COMPOSITIONS AND METHODS USING GLYCINE TO REDUCE BIOLOGICAL AGE OF AN ADULT ANIMAL” (Société des Produits Nestlé S.A., priority 2022, published 2026)

Columns and labels:
[1] = old mice (21 months), 1.6 g/kg food glycine in diet for 6 weeks, vs old control diet and young (4 months) mice
Description: 28 wild-type C57BL/6J mice of 21-months old and 12 wild-type C57BL/6J mice of 4-months old were kept in a temperature-and humidity-controlled environment with a 12:12-h light-dark cycle. Mice had access to nesting and enrichment materials and were provided with ad libitum access to water and food.
(§1) Mice underwent to a dietary supplementation for 6 weeks. The young control group (n=12) and old control group (n=14) received a commercial standard powdered diet (Safe 150, Safe Diets), with 20% humidity. […] At the end of the treatment, mice were euthanized with isoflurane after 2-hours fasting. Muscle gastrocnemius has been dissected and samples were snap frozen in liquid nitrogen and stored at −80° C.
Tissue pieces were excised on dry ice with liquid nitrogen cooled scalpels and kept at −80° C. until extraction. For extraction, samples were homogenized in 300 μL −20 ° C. methanol/water (5:3), including a fully labelled 13C yeast biomass as internal standard, using 5 mm stainless steel beads in a tissue grinder (Qiagen TissueLyser II) for up to 3 min at 23 Hz. […] The protein pellets were quantified with a bicinchoninic acid assay for later normalization and the polar phases, containing the metabolites of interest, were dried overnight in a vacuum centrifuge at 4° C. and 5 mbar and stored at −80° C. until analysis. […]

[2] = old mice (21 months), 1.6 g/kg food glycine in diet for 6 weeks, compared to old mice with control diet
Protocol: All animal experiments were performed according to national Swiss and EU ethical guidelines and approved by the local animal experimentation committee under license VD3519. 28 wild-type C57BL/6J mice of 21-months old and 12 wild-type C57BL/6J mice of 4-months old were kept in a temperature-and humidity-controlled environment with a 12:12-h light-dark cycle. Mice had access to nesting and enrichment materials and were provided with ad libitum access to water and food.
as §1
DNA extraction was performed on 100 mg of muscle using QIAGEN DNeasy Blood and Tissue kit (Cat. No: 69506) and following manufacturer recommendations. DNA was quantified using the DropSense technology (Unchained Labs). […]
Raw data were sent to the Clock Foundation, who performed the analyses to calculate the biological age of the samples. […] Data were plotted and analysed using R. One-tailed parametric t statistics was performed to test the effect of the glycine supplementation compared to the control diet.

NCC(=O)O [glycine]
glycine levels in muscle [1]: significantly restores them toward young levels | biological age (DNA methylation, muscle specific clock) [2]: biological age decreases significantly
